Source: patent US20100056519A1, “COMPOSITION AND METHOD FOR REDUCING PLATELET ACTIVATION AND FOR THE TREATMENT OF THROMBOTIC EVENTS” (priority 2008, published 2010)

Legend:
Type in all cases: cell-based, human
PAC-1 (GPIIb/IIIa) [1] = test: TRAP-stimulated whole blood flow cytometry, PAC-1; settings: Mean ± SD
Description: (§1) The methodology employed was conventional aggregation induced by 5 μM ADP, 1 μg/ml collagen, 10 μM TRAP, whole blood aggregation with 1 μg/ml collagen, Ultegra, and PFA-100 Analyzers, expression of 14 intact, and TRAP-stimulated major receptors by whole blood flow cytometry were utilized to assess platelet activity after preincubation with escalating concentrations of E5555 (20 ng/ml, 50 ng/ml, and 100 ng/ml). The experiments were performed in healthy volunteers, CAD patients treated with ASA, and CAD patients treated with ASA and clopidogrel combination (n=10, for each group).
(§2) An Informed Consent was obtained from all volunteers. Drug users were excluded from data analysis. The study was approved by Quorum Institutional Review Board. All subjects underwent blood sampling after at least 30 minutes of rest and two or more hours of fasting. Blood (28 ml) was drawn between 8 and 10 a.m. in order to avoid any diurnal influence and sampled from an antecubital vein using a 21-gauge butterfly needle containing 3.2% sodium citrate (1:9 volume) after having discarded the first 1.5 ml of free running blood. Four Vacutainer tubes (7.0 ml) were collected for a total of 28 ml of whole blood-citrate mixture from each study participant. Chronologically, blood samples were delivered to the core laboratory facility within 45 minutes after drawing. Then all tubes of blood-citrate mixture were pooled. One portion of pooled blood (5 ml) was kept as an internal control and pretreated with the vehicle. The remaining blood (23 ml) was used for the in vitro exposure to E5555 at concentrations of 20 ng/ml, 50 ng/ml, and 100 ng/ml. […] The platelet aggregation studies, Rapid Analyzers measures, and flow cytometry preparations were initiated within no more than 110 minutes following the blood draw, incubation with the drug, and preparation of the samples.
(§3) Formation of platelet-leukocyte aggregates was assessed by dual labeling with pan-platelet marker (CD151), and then with CD14, the macrophage receptor for endotoxin lipopolysaccharides (PharMingen, and Coulter, San Diego, Calif., USA). The tubes were then covered with aluminum foil and incubated at 37° C. for 40 minutes with gentle rotation. After incubation, samples were immediately analyzed on a Becton Dickinson FACScan flow cytometer. The instrument was set up to measure forward light scatter, and FITC fluorescence. All parameters were collected using four-decade logarithmic amplification. The data was retrieved in list mode files and then analyzed. P selectin was expressed as percent positive cells. Other antigens were expressed as log mean fluorescence intensity.
(§4) For flow cytometry (TRAP-stimulated) all of the above flow cytometry experiments were identically repeated utilizing prestimulation with 10 μmol/L TRAP for 5 minutes at 37° C. To determine statistics, a Paired Sign Test was used to define significance of differences between vehicle and E5555-treated groups. The Mann-Whitney U test was used to analyze nonparametric data. Normally distributed data were expressed as mean±standard error (m±SE), and skewed data as median (range). All P-values were two sided. All analysis was performed using the SPSS v9.0 program (SPSS Inc., Chicago, Ill.).

CD-40L (CD154) = test: TRAP-stimulated whole blood flow cytometry, CD40-ligand; settings: Mean ± SD
Description: as §1, §2, §3, §4

SPAN-12 = test: Unstimulated whole blood flow cytometry, SPAN-12; settings: Mean ± SD
Description: as §1, §2, §3

PAC-1 (GPIIb/IIIa) [2] = test: Unstimulated whole blood flow cytometry, PAC-1; settings: for PAC-1 (GPIIb/IIIa), Mean Fluorescence Intensity: unstimulated, Mean ± SD
Description: as §1, §2, §3

GPIIb antigen (CD41) = test: Unstimulated whole blood flow cytometry, GPIIb antigen; settings: for GPIIb antigen (CD41), Mean Fluorescence Intensity: unstimulated, Mean ± SD
Description: as §1, §2, §3

[3] = E5555 100 ng/ml, Patients (ASA + C)
[4] = E5555 100 ng/ml, Patients (ASA)
[5] = E5555 20 ng/ml, Patients (ASA + C)
[6] = E5555 50 ng/ml, Patients (ASA + C)
[7] = overall summary, stimulation not stated

## Br.CCOc1cc2c(c(F)c1OCC)C(=N)N(CC(=O)c1cc(N3CCOCC3)c(OC)c(C(C)(C)C)c1)C2 [E5555, 1-(3-tert-butyl-4-methoxy-5-morpholinophenyl)-2-(5,6-diethoxy-7-fluoro-1-imino-1,3-dihydro-2H-isoindol-2-yl)ethanone hydrobromide]
PAC-1 (GPIIb/IIIa) [1]; E5555 50 ng/ml, Patients (ASA)
  PAC-1 (GPIIb/IIIa), Mean Fluorescence Intensity: 9 ± 3 MFI
PAC-1 (GPIIb/IIIa) [1]; E5555 50 ng/ml, Volunteers
  PAC-1 (GPIIb/IIIa), Mean Fluorescence Intensity: 17 ± 9 MFI
PAC-1 (GPIIb/IIIa) [1]; [3]
  PAC-1 (GPIIb/IIIa), Mean Fluorescence Intensity: 5 ± 2 MFI
PAC-1 (GPIIb/IIIa) [1]; [4]
  PAC-1 (GPIIb/IIIa), Mean Fluorescence Intensity: 4 ± 1 MFI
PAC-1 (GPIIb/IIIa) [1]; E5555 100 ng/ml, Volunteers
  PAC-1 (GPIIb/IIIa), Mean Fluorescence Intensity: 7 ± 3 MFI
CD-40L (CD154); [5]
  CD-40L (CD154), Mean Fluorescence Intensity: 4.9 ± 0.5 MFI
CD-40L (CD154); E5555 20 ng/ml, Patients (ASA)
  CD-40L (CD154), Mean Fluorescence Intensity: 5.2 ± 0.4 MFI
CD-40L (CD154); E5555 20 ng/ml, Volunteers
  CD-40L (CD154), Mean Fluorescence Intensity: 6.3 ± 0.6 MFI
CD-40L (CD154); [6]
  CD-40L (CD154), Mean Fluorescence Intensity: 4.0 ± 0.3 MFI
CD-40L (CD154); E5555 50 ng/ml, Patients (ASA)
  CD-40L (CD154), Mean Fluorescence Intensity: 4.8 ± 0.5 MFI
CD-40L (CD154); E5555 50 ng/ml, Volunteers
  CD-40L (CD154), Mean Fluorescence Intensity: 5.7 ± 0.6 MFI
CD-40L (CD154); [3]
  CD-40L (CD154), Mean Fluorescence Intensity: 4.7 ± 0.5 MFI
CD-40L (CD154); [4]
  CD-40L (CD154), Mean Fluorescence Intensity: 5.0 ± 0.8 MFI
CD-40L (CD154); E5555 100 ng/ml, Volunteers
  CD-40L (CD154), Mean Fluorescence Intensity: 5.7 ± 0.4 MFI
SPAN-12; [5]
  SPAN-12, Mean Fluorescence Intensity: 11 ± 4 MFI
SPAN-12; E5555 20 ng/ml, Patients (ASA)
  SPAN-12, Mean Fluorescence Intensity: 14 ± 3 MFI
SPAN-12; E5555 20 ng/ml, Volunteers
  SPAN-12, Mean Fluorescence Intensity: 19 ± 4 MFI
SPAN-12; [6]
  SPAN-12, Mean Fluorescence Intensity: 10 ± 6 MFI
SPAN-12; E5555 50 ng/ml, Patients (ASA)
  SPAN-12, Mean Fluorescence Intensity: 11 ± 5 MFI
SPAN-12; E5555 50 ng/ml, Volunteers
  SPAN-12, Mean Fluorescence Intensity: 19 ± 6 MFI
SPAN-12; [3]
  SPAN-12, Mean Fluorescence Intensity: 12 ± 7 MFI
SPAN-12; [4]
  SPAN-12, Mean Fluorescence Intensity: 13 ± 5 MFI
SPAN-12; E5555 100 ng/ml, Volunteers
  SPAN-12, Mean Fluorescence Intensity: 18 ± 6 MFI
PAC-1 (GPIIb/IIIa) [2]; [7]
  GP IIb/IIIa activity with PAC-1, effect in words: significant reduction
PAC-1 (GPIIb/IIIa) [2]; [5]
  PAC-1 (GPIIb/IIIa), Mean Fluorescence Intensity: 5.9 ± 0.8 MFI
PAC-1 (GPIIb/IIIa) [2]; E5555 20 ng/ml, Patients (ASA)
  PAC-1 (GPIIb/IIIa), Mean Fluorescence Intensity: 10.4 ± 1.2 MFI
PAC-1 (GPIIb/IIIa) [2]; E5555 20 ng/ml, Volunteers
  PAC-1 (GPIIb/IIIa), Mean Fluorescence Intensity: 10.7 ± 1.3 MFI
PAC-1 (GPIIb/IIIa) [2]; [6]
  PAC-1 (GPIIb/IIIa), Mean Fluorescence Intensity: 6.2 ± 1.0 MFI
PAC-1 (GPIIb/IIIa) [2]; E5555 50 ng/ml, Patients (ASA)
  PAC-1 (GPIIb/IIIa), Mean Fluorescence Intensity: 10.1 ± 2.0 MFI
PAC-1 (GPIIb/IIIa) [2]; E5555 50 ng/ml, Volunteers
  PAC-1 (GPIIb/IIIa), Mean Fluorescence Intensity: 9.2 ± 1.5 MFI
PAC-1 (GPIIb/IIIa) [2]; [3]
  PAC-1 (GPIIb/IIIa), Mean Fluorescence Intensity: 6.3 ± 0.7 MFI
PAC-1 (GPIIb/IIIa) [2]; [4]
  PAC-1 (GPIIb/IIIa), Mean Fluorescence Intensity: 11.7 ± 2.1 MFI
PAC-1 (GPIIb/IIIa) [2]; E5555 100 ng/ml, Volunteers
  PAC-1 (GPIIb/IIIa), Mean Fluorescence Intensity: 9.9 ± 2.0 MFI
GPIIb antigen (CD41); [7]
  GP IIb/IIIa antigen expression, effect in words: significant reduction
GPIIb antigen (CD41); [5]
  GPIIb antigen (CD41), Mean Fluorescence Intensity: 219 ± 25 MFI
GPIIb antigen (CD41); E5555 20 ng/ml, Patients (ASA)
  GPIIb antigen (CD41), Mean Fluorescence Intensity: 391 ± 44 MFI
GPIIb antigen (CD41); E5555 20 ng/ml, Volunteers
  GPIIb antigen (CD41), Mean Fluorescence Intensity: 423 ± 27 MFI
GPIIb antigen (CD41); [6]
  GPIIb antigen (CD41), Mean Fluorescence Intensity: 240 ± 32 MFI
GPIIb antigen (CD41); E5555 50 ng/ml, Patients (ASA)
  GPIIb antigen (CD41), Mean Fluorescence Intensity: 404 ± 31 MFI
GPIIb antigen (CD41); E5555 50 ng/ml, Volunteers
  GPIIb antigen (CD41), Mean Fluorescence Intensity: 409 ± 25 MFI
GPIIb antigen (CD41); [3]
  GPIIb antigen (CD41), Mean Fluorescence Intensity: 233 ± 30 MFI
GPIIb antigen (CD41); [4]
  GPIIb antigen (CD41), Mean Fluorescence Intensity: 396 ± 42 MFI
GPIIb antigen (CD41); E5555 100 ng/ml, Volunteers
  GPIIb antigen (CD41), Mean Fluorescence Intensity: 416 ± 24 MFI
